In the supplement of paper PMC10307832:

Key:
Experiment in all cases: relative viability (nuclei count vs DMSO), 5 days (fraction); higher = more cells survive
Kobe2602 + Dasatinib = compound: C1=CC(=CC=C1NC(=S)NNC2=C(C=C(C=C2[N+](=O)[O-])C(F)(F)F)[N+](=O)[O-])F [Kobe2602] + Cc1nc(Nc2ncc(C(=O)Nc3c(C)cccc3Cl)s2)cc(N2CCN(CCO)CC2)n1 [Dasatinib] (partner 0.075 µM)
Outline: (§1)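 A single step with final 0.05% Triton X-100, 1% formaldehyde and 1 ug/ml Hoechst fixed the cells and stained nuclei 5 days after treatment. Lung cancer cell lines in 1536-well plates had been treated by pin tool the day after seeding with one drug alone or a fixed anchor-drug dose plus five library-drug doses (not always all listed) in √10 steps, and nuclei were counted on 4× images. Relative viability is the ratio of nuclei in treated wells to nuclei in vehicle wells, taken as the median of duplicate plates.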

Kobe2602 + Luminespib = compound: C1=CC(=CC=C1NC(=S)NNC2=C(C=C(C=C2[N+](=O)[O-])C(F)(F)F)[N+](=O)[O-])F [Kobe2602] + CCNC(=O)c1noc(-c2cc(C(C)C)c(O)cc2O)c1-c1ccc(CN2CCOCC2)cc1 [Luminespib] (partner 0.01 µM)
Outline: as §1

Zosuquidar + Vorinostat = compound: O[C@@H](COc1cccc2ncccc12)CN1CCN([C@@H]2c3ccccc3[C@@H]3[C@H](c4ccccc42)C3(F)F)CC1 [Zosuquidar] + O=C(CCCCCCC(=O)Nc1ccccc1)NO [Vorinostat] (partner 1 µM)
Outline: as §1

Cabozantinib + OSI-027 = compound: COc1cc2nccc(Oc3ccc(NC(=O)C4(C(=O)Nc5ccc(F)cc5)CC4)cc3)c2cc1OC [Cabozantinib] + COc1cccc2cc(-c3nc([C@H]4CC[C@H](C(=O)O)CC4)n4ncnc(N)c34)[nH]c12 [OSI-027] (partner 0.5 µM)
Outline: as §1

| Cell Line | relative viability (Kobe2602 + Dasatinib; first compound 0.2 µM) | relative viability (Kobe2602 + Dasatinib; first compound 0.6325 µM) | relative viability (Kobe2602 + Dasatinib; first compound 2 µM) | relative viability (Kobe2602 + Dasatinib; first compound 6.325 µM) | relative viability (Kobe2602 + Dasatinib; first compound 20 µM) | relative viability (Kobe2602 + Luminespib; first compound 0.2 µM) | relative viability (Kobe2602 + Luminespib; first compound 0.6325 µM) | relative viability (Kobe2602 + Luminespib; first compound 2 µM) | relative viability (Kobe2602 + Luminespib; first compound 6.325 µM) | relative viability (Kobe2602 + Luminespib; first compound 20 µM) | relative viability (Zosuquidar + Vorinostat; first compound 0.01 µM) | relative viability (Zosuquidar + Vorinostat; first compound 0.03162 µM) | relative viability (Zosuquidar + Vorinostat; first compound 0.1 µM) | relative viability (Zosuquidar + Vorinostat; first compound 0.3162 µM) | relative viability (Zosuquidar + Vorinostat; first compound 1 µM) | relative viability (Cabozantinib + OSI-027; first compound 0.02 µM) | relative viability (Cabozantinib + OSI-027; first compound 0.06325 µM) | relative viability (Cabozantinib + OSI-027; first compound 0.2 µM) | relative viability (Cabozantinib + OSI-027; first compound 0.6325 µM) | relative viability (Cabozantinib + OSI-027; first compound 2 µM) |
| --- | --- | --- | --- | --- | --- | --- | --- | --- | --- | --- | --- | --- | --- | --- | --- | --- | --- | --- | --- | --- |
| NCI-H2009 | 0.282 | 0.368 | 0.332 | 0.336 | 0.312 | 1.04 | 1.1 | 1.07 | 1.09 | 0.964 | 0.688 | 0.658 | 0.654 | 0.773 | 0.664 | 0.642 | 0.724 | 0.695 | 0.674 | 0.496 |
| NCI-H2023 | 0.532 | 0.583 | 0.547 | 0.484 | 0.394 | 0.596 | 0.783 | 0.759 | 0.528 | 0.156 | 0.529 | 0.837 | 0.596 | 0.732 | 0.541 | 0.308 | 0.39 | 0.322 | 0.327 | 0.235 |
| NCI-H2085 | 0.262 | 0.261 | 0.24 | 0.238 | 0.23 | 0.393 | 0.466 |  | 0.478 | 0.436 | 0.807 | 0.753 |  | 0.907 | 0.767 | 0.817 | 0.756 | 0.661 | 0.66 | 0.642 |
| NCI-H2087 | 0.932 | 0.892 | 0.747 | 0.844 | 0.924 | 0.226 | 0.153 | 0.174 | 0.143 | 0.153 | 0.666 | 0.707 | 0.739 | 0.667 | 0.77 | 0.364 | 0.549 | 0.637 | 0.562 | 0.633 |
| NCI-H2126 | 0.57 | 0.557 | 0.522 | 0.446 | 0.475 | 0.947 | 0.976 | 0.895 | 0.884 | 0.825 | 0.768 | 0.862 | 0.478 | 0.757 | 0.891 |  | 0.798 | 0.706 | 0.71 | 0.884 |
| NCI-H2170 | 0.632 | 0.544 | 0.496 | 0.558 | 0.592 | 0.856 | 0.922 | 0.703 | 0.944 | 0.719 | 0.828 | 0.784 | 0.763 | 0.844 | 0.826 | 0.724 | 0.752 | 0.608 | 0.732 | 0.731 |
| NCI-H2228 | 0.415 | 0.549 | 0.504 | 0.502 | 0.529 | 0.129 | 0.177 | 0.198 | 0.145 | 0.165 | 0.972 | 0.61 | 0.935 | 0.895 | 0.869 | 0.495 | 0.871 | 0.576 | 0.449 | 0.508 |
| NCI-H2342 | 0.285 | 0.323 | 0.367 | 0.303 | 0.333 | 0.826 | 0.735 | 0.741 | 0.692 | 0.773 | 0.753 | 0.807 | 0.686 | 0.813 | 0.81 | 0.543 | 0.723 | 0.563 | 0.621 | 0.613 |
| NCI-H2347 | 0.377 | 0.282 | 0.315 | 0.364 | 0.414 | 0.454 | 0.369 | 0.793 |  | 0.756 | 0.531 | 0.713 | 0.499 | 0.615 | 0.56 | 0.303 | 0.42 | 0.45 |  | 0.294 |
